Experimental findings from patent US9273057B2 (Bristol-Myers Squibb Company, priority 2012, dated 2016) are described below.

The target in this assay is CK2A1 (CK2α/β) (Homo sapiens, UniProt P68400). Description: CK2 kinase assay, CK2A1 (CK2α/β). The assay is classed as biochemical. The following applies: Table A; read-out: CK2A1 (CK2α/β) (IC50).
CK2A1 (CK2α/β), sequence (P68400 whole entry, species assumed): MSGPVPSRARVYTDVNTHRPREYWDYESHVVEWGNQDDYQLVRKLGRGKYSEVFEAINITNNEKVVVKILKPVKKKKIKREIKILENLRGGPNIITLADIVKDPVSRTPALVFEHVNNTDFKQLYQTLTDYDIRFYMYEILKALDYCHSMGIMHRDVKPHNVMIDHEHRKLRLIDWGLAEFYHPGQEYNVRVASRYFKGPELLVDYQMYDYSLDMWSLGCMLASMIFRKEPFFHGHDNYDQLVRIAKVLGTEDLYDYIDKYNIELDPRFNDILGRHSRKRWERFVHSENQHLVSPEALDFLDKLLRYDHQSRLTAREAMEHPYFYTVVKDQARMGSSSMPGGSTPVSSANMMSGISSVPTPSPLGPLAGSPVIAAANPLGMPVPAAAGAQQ
CK2A1 (CK2α/β), sequence (P67870 whole entry partner, species assumed): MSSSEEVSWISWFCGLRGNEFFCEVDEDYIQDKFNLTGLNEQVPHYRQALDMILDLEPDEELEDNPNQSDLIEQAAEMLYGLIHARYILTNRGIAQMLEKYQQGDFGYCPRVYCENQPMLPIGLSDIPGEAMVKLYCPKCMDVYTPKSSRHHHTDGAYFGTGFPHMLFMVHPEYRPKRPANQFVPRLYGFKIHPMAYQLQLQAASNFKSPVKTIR
Method: For example, in vitro protein kinase assays may be conducted with a relevant purified protein kinase and an appropriate synthetic substrate to determine the inhibitory activity of the compounds. […] Reaction mixtures were incubated at 30° C. for 1 hour, and reaction products were captured by binding to phosphocellulose (P81) filter plates. Incorporation of radioactive phosphate into the peptide substrate was determined by liquid scintillation counting.
The inhibitory activity of the instant compounds may also be measured by recombinant CK2 holoenzyme kinase assays. The assays were performed in U-bottom 384-well plates. […] The reaction was initiated by the combination of bacterially expressed, CK2 α/β or CK2 holoenzyme with substrates and test compounds. The reaction was incubated at room temperature for 60 minutes and terminated by adding 30 μl of 35 mM EDTA to each sample. The reaction mixture was analyzed on the Caliper LABCHIP® 3000 (Caliper, Hopkinton, Mass.) by electrophoretic separation of the fluorescent substrate and phosphorylated product. […] Compounds were dissolved at 10 mM in dimethylsulfoxide (DMSO) and evaluated at eleven concentrations. IC50 values were derived by non-linear regression analysis.
With `CC(c1cc(C#N)cc(Nc2nc(NC3CC3)c3ncc(C#N)n3n2)c1Cl)N1CCNC(=O)C1` (racemic) [Example 679, (+/−)-2-((2-chloro-5-cyano-3-(1-(3-oxopiperazin-1-yl)ethyl)phenyl)amino)-4-(cyclopropylamino)imidazo[2,1-f][1,2,4]triazine-7-carbonitrile], the IC50 is 1.22 nM. In the case of `CCNC(=O)OCC1CN(c2cc(C#N)cc(Nc3nc(NC4CC4)c4ncc(C#N)n4n3)c2Cl)CCO1` (racemic) [Example 699, (+/−)-(4-(2-chloro-5-cyano-3-((7-cyano-4-(cyclopropylamino)imidazo[2,1-f][1,2,4]triazin-2-yl)amino)phenyl)morpholin-2-yl)methyl ethylcarbamate], the IC50 was 0.97 nM. As to `CC(O)(CO)c1cc(C#N)cc(Nc2nc(NC3CC3)c3ncc(C#N)n3n2)c1Cl` (racemic) [Example 682, (+/−)-2-((2-chloro-5-cyano-3-(1,2-dihydroxypropan-2-yl)phenyl)amino)-4-(cyclopropylamino)imidazo[2,1-f][1,2,4]triazine-7-carbonitrile], the IC50 came to 0.32 nM. With `N#Cc1cc(CNCc2ccccn2)c(Cl)c(Nc2nc(NC3CC3)c3ncc(C#N)n3n2)c1` [Example 467, 2-[(2-chloro-5-cyano-3-{[(pyridin-2-ylmethyl)amino]methyl}phenyl)amino]-4-(cyclopropylamino)imidazo[2,1-f][1,2,4]triazine-7-carbonitrile] the figure was 0.45 nM. On to `N#Cc1cc(Nc2nc(NC3CC3)c3ncc(C#N)n3n2)c(Cl)c(N2CCN(C3CN(C(=O)[C@H](O)C(F)(F)F)C3)CC2)c1` [Example 510, 2-{[2-chloro-5-cyano-3-(4-{1-[(2S)-3,3,3-trifluoro-2-hydroxypropanoyl]azetidin-3-yl}piperazin-1-yl)phenyl]amino}-4-(cyclopropylamino)imidazo[2,1-f][1,2,4]triazine-7-carbonitrile], for which the IC50 came to 4.24 nM.

`CCNc1nc(Nc2cc(C#N)cc(N3CC[C@@H]4[C@@H](C3)OC(=O)N4C3CCOCC3)c2Cl)nn2c(C#N)cnc12` [Example 845]: the IC50 turned out to be 0.92 nM. With `CN(C)CC(=O)Nc1cc(C#N)cc(Nc2nc(NC3CC3)c3ncc(C#N)n3n2)c1Cl` [Example 620, N-(2-chloro-5-cyano-3-((7-cyano-4-(cyclopropylamino)imidazo[2,1-f][1,2,4]triazin-2-yl)amino)phenyl)-2-(dimethylamino)acetamide] the figure was 1.77 nM. The value for `CCNc1nc(Nc2cc(C#N)cc(N3CC[C@@H]4[C@@H](C3)OCCN4C)c2Cl)nn2c(C#N)cnc12` (racemic) [Example 373, (+/−)-2-((2-chloro-5-cyano-3-((4aR,8 aR)-1-methylhexahydro-1H-pyrido[3,4-b][1,4]oxazin-6(7H)-yl)phenyl)amino)-4-(ethylamino)imidazo[2,1-f][1,2,4]triazine-7-carbonitrile] was 0.99 nM; that for `N#Cc1cc(Nc2nc(NC3CC3)c3ncc(C#N)n3n2)c(Cl)c(N2CCN(C3CN(C(=O)C4CCC(=O)N4)C3)CC2)c1` (centres unmarked) [Example 506, 2-[(2-chloro-5-cyano-3-{4-[1-(5-oxopyrrolidine-2-carbonyl)azetidin-3-yl]piperazin-1-yl}phenyl)amino]-4-(cyclopropylamino)imidazo[2,1-f][1,2,4]triazine-7-carbonitrile] was 4.33 nM; that for `N#Cc1cnc2c(NC3CC3)nc(Nc3cc(OC(F)F)cc(N4CCN(C5COC5)CC4)c3Cl)nn12` [Example 557, 2-((2-chloro-5-(difluoromethoxy)-3-(4-(oxetan-3-yl)piperazin-1-yl)phenyl)amino)-4-(cyclopropylamino)imidazo[2,1-f][1,2,4]triazine-7-carbonitrile] was 2.05 nM. With `COCCN1CCN(Cc2cc(C#N)cc(Nc3nc(NC4CC4)c4ncc(C#N)n4n3)c2Cl)CC1` [Example 476, 2-[(2-chloro-5-cyano-3-{[4-(2-methoxyethyl)piperazin-1-yl]methyl}phenyl)amino]-4-(cyclopropylamino)imidazo[2,1-f][1,2,4]triazine-7-carbonitrile] the figure was 2.98 nM.
